Measurements taken from patent US20240207444A1, “LIPID NANOPARTICLES CONTAINING POLYNUCLEOTIDES ENCODING PHENYLALANINE HYDROXYLASE AND USES THEREOF” (ModernaTX, Inc., priority 2021, published 2024).

Assay: Residual parent lipid levels in the liver of mice
Assay type: in vivo, CD-1 mice
Conditions: calculation assumes a 25 g mouse with a 1.5 g liver, >95% equals very slow metabolism of the lipid
Protocol: To assess potency of expression and metabolic stability of lipids of the disclosure, hepatocyte protein expression (hEPO) was measured following administration to mice of a nanoparticle of the disclosure.
Lipid nanoparticles including DSPC as a phospholipid, cholesterol as a structural lipid, Compound I as a PEG lipid, an ionizable amino lipid of Formula (II), and an mRNA encoding hEPO were intravenously administered to CD-1 mice. The concentration of hEPO in serum was tested at 6 hours after injection.

| Compound | Approx. Percent Total Dose of Parent Lipid Remaining at 24 h |
| --- | --- |
| CCCCCCCCC(CCCCCCCC)OC(=O)CCCCCCCN(CCO)CCCCCCCC(=O)OCCCC(CCCCC)CCCCC [Compound 31] | <0.1%^ |
| CCCCCC(CCCCC)CCCOC(=O)CCCCCCCN(CCO)CCCCCCCC(=O)OCCCC(CCCCC)CCCCC [Compound 33] | <0.1%^ |
| CCCCCCCCC(CCCCCCCC)OC(=O)CCCCCCCN(CCO)CCCCCCCC(=O)OCCC1CCC(CC)CC1 (stereo not shown) [Compound 35] | <0.1%^ |
| CCCCCCCCC(CCCCCCCC)OC(=O)CCCCCCCN(CCO)CCCCCCCC(=O)OCCC1CCC(CC)C1 (stereo not shown) [Compound 37] | <0.1%^ |

The next lines start with the values.

| Approx. Percent Total Dose of Parent Lipid Remaining at 24 h | Compound |
| --- | --- |
| 9 ± 0.8% ^ | CCCCCCC(CCCCCC)OC(=O)CCCCCCCN(CCCCCCCC(=O)OCCC(CCCC)CCCC)CCCNc1c(NC)c(=O)c1=O [Compound 60] |
| 6 ± 0.3% ^ | CCCCCC(CCCCC)OC(=O)CCCCCCCN(CCCCCCCC(=O)OCCC(CCCC)CCCC)CCCNc1c(NC)c(=O)c1=O [Compound 61] |
| 2 ± 0.9% ^ | CCCCC(CCCC)CCOC(=O)CCCCCCCN(CCCCCCCC(=O)OC(CCCC)CCCC)CCCNc1c(NC)c(=O)c1=O [Compound 62] |
| 9 ± 3% ^ | CCCCCCCC(CCCCCCC)OC(=O)CCCCCCCN(CCCCCCCC(=O)OCCC(CCC)CCC)CCCNc1c(NC)c(=O)c1=O [Compound 63] |
| 6 ± 0.8% ^ | CCCCCCC(CCCCCC)OC(=O)CCCCCCCN(CCCCCCCC(=O)OCCC(CCC)CCC)CCCNc1c(NC)c(=O)c1=O [Compound 64] |
| 0.9 ± 0.06% ^ | CCCCCC(CCCCC)OC(=O)CCCCCCCN(CCCCCCCC(=O)OCCC(CCC)CCC)CCCNc1c(NC)c(=O)c1=O [Compound 65] |
